# Results reported in patent US9340537B2, “Benzamide derivatives for inhibiting the activity of ABL1, ABL2 and BCR-ABL1” (NOVATIS AG, priority 2012, dated 2016).
# pIC50: −log10 of the molar value. Where two headings read alike, the source gives them in different places.
# Assays:
# ABL1 (64-515) [1] = target: T1, ABL1 (64-515) (Homo sapiens (Human), UniProt P00519); assay: Radio ABL1 (64-515) radiometric filter-binding kinase assay; assay type: biochemical; conditions: 20 μM ATP
# ABL1 (64-515) [2] = target: T1, ABL1 (64-515); assay: Caliper ABL1 (64-515) microfluidic mobility shift kinase assay; conditions: read-out: Caliper ABL1 (64-515) IC50
# [3] = test system: Ba/F3-BCR-ABL1-T315I cells; assay: Proliferation assay Ba/F3-BCR-ABL1-T315I cells; assay type: cell-based, murine; conditions: Mus musculus; for pIC50: 48 hours, Britelite luminescence, read-out: Ba/F3-BCR-ABL1-T315I IC50
# Ba/F3-BCR-ABL1-WT cells = assay: Proliferation assay Ba/F3-BCR-ABL1-WT cells; assay type: cell-based, murine; conditions: Mus musculus; for pIC50: 48 hours, Britelite luminescence, read-out: Ba/F3-BCR-ABL1-WT IC50
# T1 sequence (P00519 64-515): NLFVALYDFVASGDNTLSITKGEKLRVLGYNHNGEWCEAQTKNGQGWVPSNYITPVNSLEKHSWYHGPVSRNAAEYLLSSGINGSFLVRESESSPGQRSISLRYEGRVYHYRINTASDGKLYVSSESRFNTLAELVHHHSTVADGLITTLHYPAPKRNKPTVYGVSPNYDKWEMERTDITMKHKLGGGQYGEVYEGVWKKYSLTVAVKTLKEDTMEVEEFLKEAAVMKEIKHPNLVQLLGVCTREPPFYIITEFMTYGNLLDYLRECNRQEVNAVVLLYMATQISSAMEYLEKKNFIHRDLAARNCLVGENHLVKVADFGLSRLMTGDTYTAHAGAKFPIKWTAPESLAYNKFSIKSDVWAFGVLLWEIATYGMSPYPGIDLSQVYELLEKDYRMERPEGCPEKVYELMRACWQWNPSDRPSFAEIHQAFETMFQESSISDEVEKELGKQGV
pIC50 (ABL1 (64-515) [1]),pIC50 (ABL1 (64-515) [2]),Compound,pIC50 [3],pIC50 (Ba/F3-BCR-ABL1-WT cells),"IC50 ([3]; 48 h, read-out: Ba/F3-BCR-ABL1-T315I IC50 [μM]) [µM]","IC50 (Ba/F3-BCR-ABL1-WT cells; 48 h, read-out: Ba/F3-BCR-ABL1-WT IC50 [μM]) [µM]"
8.05,8.89,"O=C(Nc1ccc(OC(F)(F)F)cc1)c1cnc(N2CC[C@@H](O)C2)c(-c2ccc[nH]2)c1 [Example 6, (R)-6-(3-Hydroxypyrrolidin-1-yl)-5-(1H-pyrrol-2-yl)-N-(4-(trifluoromethoxy)phenyl)nicotinamide]",6.97,8.35,–,–
> 8.52,–,"O=C(Nc1ccc(OC(F)(F)F)cc1)c1cnc(N2CC[C@@H](O)C2)c(-c2ccoc2)c1 [Example 7, (R)-5-(Furan-3-yl)-6-(3-hydroxypyrrolidin-1-yl)-N-(4-(trifluoromethoxy)phenyl)nicotinamide]",6.17,8.23,–,–
–,–,"C[C@@]1(O)CCN(c2ncc(C(=O)Nc3ccc(OC(F)(F)F)cc3)cc2-c2ccn[nH]2)C1 [Example 14, (R)-6-(3-Hydroxy-3-methylpyrrolidin-1-yl)-5-(1H-pyrazol-5-yl)-N-(4-(trifluoromethoxy)phenyl)nicotinamide]",–,–,0.134,0.0048
> 10.00,8.85,"CN(C)[C@H]1CN(c2ncc(C(=O)Nc3ccc(OC(F)(F)Cl)cc3)cc2-c2ccn[nH]2)C[C@@H]1O [Example 53, N-(4-(Chlorodifluoromethoxy)phenyl)-6-((3S,4S)-3-(dimethylamino)-4-hydroxypyrrolidin-1-yl)-5-(1H-pyrazol-5-yl)nicotinamide]",–,–,–,–
9.00,9.40,"NC12CC1CN(c1ncc(C(=O)Nc3ccc(OC(F)(F)Cl)cc3)cc1-c1ccn[nH]1)C2 (stereo not shown) [Example 54, 6-(1-Amino-3-azabicyclo[3.1.0]hexan-3-yl)-N-(4-(chlorodifluoromethoxy)phenyl)-5-(1H-pyrazol-5-yl)nicotinamide]",–,–,–,–
9.00,9.70,"N[C@@H]1[C@H]2CN(c3ncc(C(=O)Nc4ccc(OC(F)(F)Cl)cc4)cc3-c3ccn[nH]3)C[C@@H]12 [Example 55, 6-((1R,5S,6s)-6-Amino-3-azabicyclo[3.1.0]hexan-3-yl)-N-(4-(chlorodifluoromethoxy)phenyl)-5-(1H-pyrazol-5-yl)nicotinamide]",–,–,–,–
9.00,8.54,"O=C(Nc1ccc(OC(F)(F)Cl)cc1)c1cnc(N2CCNC3(CC3)C2)c(-c2ccn[nH]2)c1 [Example 56, N-(4-(Chlorodifluoromethoxy)phenyl)-5-(1H-pyrazol-5-yl)-6-(4,7-diazaspiro[2.5]octan-7-yl)nicotinamide]",–,–,–,–
8.24,8.47,"O=C(Nc1ccc(OC(F)(F)Cl)cc1)c1cnc(N2CCN(C3CC3)CC2)c(-c2ccn[nH]2)c1 [Example 57, N-(4-(Chlorodifluoromethoxy)phenyl)-6-(4-cyclopropylpiperazin-1-yl)-5-(1H-pyrazol-5-yl)nicotinamide]",–,–,–,–
8.24,8.62,"O=C(Nc1ccc(OC(F)(F)Cl)cc1)c1cnc(N2CCN(CCF)CC2)c(-c2ccn[nH]2)c1 [Example 58, N-(4-(Chlorodifluoromethoxy)phenyl)-6-(4-(2-fluoroethyl)piperazin-1-yl)-5-(1H-pyrazol-5-yl)nicotinamide]",–,–,–,–
7.59,8.48,"O=C(Nc1ccc(OC(F)(F)Cl)cc1)c1cnc(N2CCN(CC(F)F)CC2)c(-c2ccn[nH]2)c1 [Example 59, N-(4-(Chlorodifluoromethoxy)phenyl)-6-(4-(2,2-difluoroethyl)piperazin-1-yl)-5-(1H-pyrazol-5-yl)nicotinamide]",–,–,–,–
9.00,> 9.19,"O=C(Nc1ccc(OC(F)(F)Cl)cc1)c1cnc(N2CCN(CC(F)(F)F)CC2)c(-c2ccn[nH]2)c1 [Example 60, N-(4-(Chlorodifluoromethoxy)phenyl)-5-(1H-pyrazol-5-yl)-6-(4-(2,2,2-trifluoroethyl)piperazin-1-yl)nicotinamide]",–,–,–,–
8.40,9.70,"NC1CN(c2ncc(C(=O)Nc3ccc(OC(F)(F)Cl)cc3)cc2-c2ccn[nH]2)C1 [Example 64, 6-(3-Aminoazetidin-1-yl)-N-(4-(chlorodifluoromethoxy)phenyl)-5-(1H-pyrazol-5-yl)nicotinamide]",–,–,–,–
8.25,9.05,"CN(C)C1CN(c2ncc(C(=O)Nc3ccc(OC(F)(F)Cl)cc3)cc2-c2ccn[nH]2)C1 [Example 65, N-(4-(Chlorodifluoromethoxy)phenyl)-6-(3-(dimethylamino)azetidin-1-yl)-5-(1H-pyrazol-5-yl)nicotinamide]",–,–,–,–
8.82,9.10,"CC1(O)CN(c2ncc(C(=O)Nc3ccc(OC(F)(F)Cl)cc3)cc2-c2ccn[nH]2)C1 [Example 66, N-(4-(Chlorodifluoromethoxy)phenyl)-6-(3-hydroxy-3-methylazetidin-1-yl)-5-(1H-pyrazol-5-yl)nicotinamide]",–,–,–,–
8.70,> 9.89,"O=C(Nc1ccc(OC(F)(F)Cl)cc1)c1cnc(N2CC3(CNC3)C2)c(-c2ccn[nH]2)c1 [Example 68, N-(4-(Chlorodifluoromethoxy)phenyl)-5-(1H-pyrazol-5-yl)-6-(2,6-diazaspiro[3.3]heptan-2-yl)nicotinamide]",–,–,–,–
8.52,8.85,"N[C@H]1CN(c2ccc(C(=O)Nc3ccc(OC(F)(F)Cl)cc3)cc2-c2ccn[nH]2)C[C@@H]1O [Example 76, 4-((3S,4S)-3-Amino-4-hydroxypyrrolidin-1-yl)-N-(4-(chlorodifluoromethoxy)phenyl)-3-(1H-pyrazol-5-yl)benzamide]",–,–,–,–
–,9.15,"O=C(Nc1ccc(OC(F)(F)Cl)cc1)c1ccc(N2C[C@H](O)[C@@H](O)C2)c(-c2ccn[nH]2)c1 [Example 77, N-(4-(Chlorodifluoromethoxy)phenyl)-4-((3S,4S)-3,4-dihydroxypyrrolidin-1-yl)-3-(1H-pyrazol-5-yl)benzamide]",7.12,8.39,–,–
8.70,9.10,"Cc1cc(-c2cc(C(=O)Nc3ccc(OC(F)(F)Cl)cc3)ccc2N2C[C@H](N)[C@@H](O)C2)[nH]n1 [Example 84, 4-((3S,4S)-3-Amino-4-hydroxypyrrolidin-1-yl)-N-(4-(chlorodifluoromethoxy)phenyl)-3-(3-methyl-1H-pyrazol-5-yl)benzamide]",–,–,–,–
8.70,9.15,"O=C(Nc1ccc(OC(F)(F)Cl)cc1)c1cnc(N2CCC(O)CC2)c(-c2ccn[nH]2)c1 [Example 85, N-(4-(Chlorodifluoromethoxy)phenyl)-6-(4-hydroxypiperidin-1-yl)-5-(1H-pyrazol-5-yl)nicotinamide]",–,–,–,–
8.40,8.82,"O=C(Nc1ccc(OC(F)(F)Cl)cc1)c1cnc(N2CCC[C@H](O)C2)c(-c2ccn[nH]2)c1 [Example 86, (S)—N-(4-(Chlorodifluoromethoxy)phenyl)-6-(3-hydroxypiperidin-1-yl)-5-(1H-pyrazol-5-yl)nicotinamide]",–,–,–,–
8.52,8.89,"O=C(Nc1ccc(OC(F)(F)Cl)cc1)c1cnc(N2CCC[C@@H](O)C2)c(-c2ccn[nH]2)c1 [Example 87, (R)—N-(4-(Chlorodifluoromethoxy)phenyl)-6-(3-hydroxypiperidin-1-yl)-5-(1H-pyrazol-5-yl)nicotinamide]",–,–,–,–

Compound,pIC50 (ABL1 (64-515) [1]),pIC50 (ABL1 (64-515) [2]),pIC50 [3],pIC50 (Ba/F3-BCR-ABL1-WT cells),"IC50 ([3]; 48 h, read-out: Ba/F3-BCR-ABL1-T315I IC50 [μM]) [µM]","IC50 (Ba/F3-BCR-ABL1-WT cells; 48 h, read-out: Ba/F3-BCR-ABL1-WT IC50 [μM]) [µM]"
"O=C(Nc1ccc(OC(F)(F)Cl)cc1)c1cnc(N2C[C@H](O)[C@@H](F)C2)c(-c2ccn[nH]2)c1 (relative stereo) [Example 75, N-(4-(Chlorodifluoromethoxy)phenyl)-6-(trans-3-fluoro-4-hydroxypyrrolidin-1-yl)-5-(1H-pyrazol-5-yl)nicotinamide]",8.52,9.30,7.77,8.92,–,–
"O=C(Nc1ccc(OC(F)(F)F)cc1)c1cnc(N2CC[C@@H](O)C2)c(-c2cncs2)c1 [Example 10, (R)-6-(3-Hydroxypyrrolidin-1-yl)-5-(thiazol-5-yl)-N-(4-(trifluoromethoxy)phenyl)nicotinamide]",8.28,9.30,7.30,8.60,–,–
"O=C(Nc1ccc(OC(F)(F)Cl)cc1)c1cnc(N2CC[C@@H](O)C2)c(-c2ccc[nH]2)c1 [Example 22, (R)—N-(4-(Chlorodifluoromethoxy)phenyl)-6-(3-hydroxypyrrolidin-1-yl)-5-(1H-pyrrol-2-yl)nicotinamide]",8.62,> 9.89,7.57,9.10,–,–
"O=C(Nc1ccc(OC(F)(F)F)cc1)c1cnc(N2CC[C@@H](O)C2)c(-c2ncc[nH]2)c1 [Example 70, (R)-6-(3-Hydroxypyrrolidin-1-yl)-5-(1H-imidazol-2-yl)-N-(4-(trifluoromethoxy)phenyl)nicotinamide]",–,8.19,6.97,8.24,–,–
"O=C(Nc1ccc(OC(F)(F)Cl)cc1)c1cnc(N2CC[C@@H](O)C2)c(-c2ncc[nH]2)c1 [Example 71, (R)—N-(4-(Chlorodifluoromethoxy)phenyl)-6-(3-hydroxypyrrolidin-1-yl)-5-(1H-imidazol-2-yl)nicotinamide]",–,9.40,8.10,8.96,–,–
"Cc1cnc(-c2cc(C(=O)Nc3ccc(OC(F)(F)F)cc3)cnc2N2CC[C@@H](O)C2)[nH]1 [Example 72, (R)-6-(3-Hydroxypyrrolidin-1-yl)-5-(5-methyl-1H-imidazol-2-yl)-N-(4-(trifluoromethoxy)phenyl)nicotinamide]",–,8.38,7.13,8.35,–,–
"CN(C)C(=O)c1ccc(-c2cc(C(=O)Nc3ccc(OC(F)(F)Cl)cc3)cnc2N2CC[C@@H](O)C2)[nH]1 [Example 73, (R)—N-(4-(Chlorodifluoromethoxy)phenyl)-5-(5-(dimethylcarbamoyl)-1H-pyrrol-2-yl)-6-(3-hydroxypyrrolidin-1-yl)nicotinamide]",–,8.96,8.15,9.40,–,–
